Here are results for eight compounds from PubChem BioAssay (NCI).

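The compound was tested at five concentrations on cells cultured in 96-well plates, with a 48-hour exposure period. TGI: total growth inhibition.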

Among the test systems are SK-MEL-5 melanoma; 786-0 renal; SNB-78 CNS; DLD-1 colon; KM20L2 colon; LXFL 529 NSCLC; MOLT-4 leukemia; HOP-62 NSCLC; XF 498 CNS; DMS 273 small cell lung; DMS 114 small cell lung; CCRF-CEM leukemia; HOP-18 NSCLC; M19-MEL melanoma; U251 CNS; RXF-631 renal.
Common to all, as to experiment: growth of human tumour cells (NCI), 48 h

Regarding `O=C(O)c1ccc(C2COc3ccc(Cl)cc3C2)cc1` (stereo not given), the TGI in the assay on SK-MEL-5 melanoma, in the assay on 786-0 renal, with SNB-78 CNS, in the assay on DLD-1 colon, in the assay with KM20L2 colon and in the assay with LXFL 529 NSCLC was over 100 µM in each case. Also, the TGI with MOLT-4 leukemia, in the assay on HOP-62 NSCLC, with XF 498 CNS, in the assay with DMS 273 small cell lung, in the assay on DMS 114 small cell lung and in the assay with CCRF-CEM leukemia was over 100 µM each time. Besides, the TGI in the assay with HOP-18 NSCLC, in the assay on M19-MEL melanoma and in the assay with U251 CNS was over 100 µM in each case.
For the compound `COc1ccc2c(c1)C(=O)C1CC(=O)CCC21` (stereo not given), the TGI with SK-MEL-5 melanoma, with 786-0 renal, with SNB-78 CNS, in the assay on DLD-1 colon, in the assay with RXF-631 renal and in the assay with KM20L2 colon was over 100 µM each time. The TGI with LXFL 529 NSCLC, in the assay on MOLT-4 leukemia, in the assay on HOP-62 NSCLC, in the assay on DMS 273 small cell lung, in the assay with DMS 114 small cell lung and in the assay with CCRF-CEM leukemia was over 100 µM in each case. For the same compound, the TGI with HOP-18 NSCLC, in the assay on M19-MEL melanoma and in the assay with U251 CNS was over 100 µM throughout.
Regarding `CC(=O)CN(Cc1cc(C)c2c(c1)c1ccccc1n2Cc1ccccc1)S(=O)(=O)c1ccc(C)cc1`, the TGI in the assay with SK-MEL-5 melanoma, with 786-0 renal, in the assay with SNB-78 CNS, in the assay with DLD-1 colon, in the assay with RXF-631 renal and with LXFL 529 NSCLC was over 100 µM in each case. For the same compound, the TGI with MOLT-4 leukemia, with HOP-62 NSCLC, in the assay with XF 498 CNS, with DMS 273 small cell lung, with DMS 114 small cell lung and in the assay with CCRF-CEM leukemia was over 100 µM in each case. Also, the TGI in the assay with HOP-18 NSCLC and in the assay with M19-MEL melanoma was over 100 µM throughout.
On to `CS(=O)(=O)c1ccc(-c2cc(-c3ccc(S(C)(=O)=O)cc3)[n+](-c3cc(-c4ccc(S(C)(=O)=O)cc4)c([O-])c(-c4ccc(S(C)(=O)=O)cc4)c3)c(-c3ccc(S(C)(=O)=O)cc3)c2)cc1`, for which the TGI in the assay with SK-MEL-5 melanoma, in the assay on 786-0 renal, with SNB-78 CNS, in the assay on DLD-1 colon, with RXF-631 renal and in the assay with KM20L2 colon was over 100 µM throughout. Moreover, the TGI with LXFL 529 NSCLC, in the assay on MOLT-4 leukemia, in the assay on HOP-62 NSCLC, in the assay on DMS 273 small cell lung, with DMS 114 small cell lung and in the assay with CCRF-CEM leukemia was over 100 µM each time. Moreover, the TGI in the assay on HOP-18 NSCLC, with M19-MEL melanoma and in the assay with U251 CNS was over 100 µM throughout.
Consider `COC(=O)c1onc(-c2c(OC)cc(OC)cc2OC)c1C(=O)OC`, for which the TGI in the assay with SK-MEL-5 melanoma, with 786-0 renal, in the assay on SNB-78 CNS, in the assay on DLD-1 colon, with KM20L2 colon and in the assay with LXFL 529 NSCLC was over 100 µM throughout. Further, the TGI in the assay with MOLT-4 leukemia, in the assay on HOP-62 NSCLC, in the assay with XF 498 CNS, with DMS 273 small cell lung, with DMS 114 small cell lung and in the assay on CCRF-CEM leukemia was over 100 µM throughout. Moreover, the TGI with HOP-18 NSCLC, with M19-MEL melanoma and in the assay with U251 CNS was over 100 µM each time.
For `CC1(C)OC(=O)C(C#N)=C1/C=C/c1coc2ccc(Cl)cc2c1=O`, the TGI in the assay with SK-MEL-5 melanoma is 53.5 µM; in the assay on 786-0 renal it was over 100 µM; with SNB-78 CNS, over 100 µM; in the assay on DLD-1 colon, 98 µM; in the assay with RXF-631 renal it was over 100 µM; with KM20L2 colon it was over 100 µM. The TGI in the assay with LXFL 529 NSCLC was over 100 µM; with MOLT-4 leukemia, 94.1 µM; in the assay with HOP-62 NSCLC, 79.3 µM; in the assay on DMS 273 small cell lung, over 100 µM; with DMS 114 small cell lung, over 100 µM; in the assay with CCRF-CEM leukemia, 87 µM. For the same compound, the TGI in the assay with M19-MEL melanoma and in the assay with U251 CNS was over 100 µM in each case.
For the compound `CC(=O)C(CN(CC(C)C)CC(C)C)C(c1ccccc1)c1c(O)c2ccccc2oc1=O` (stereo not given), the TGI with 786-0 renal, in the assay on DLD-1 colon, in the assay on RXF-631 renal, with KM20L2 colon, with LXFL 529 NSCLC and in the assay on MOLT-4 leukemia was over 100 µM each time. In addition, the TGI in the assay on HOP-62 NSCLC, with DMS 114 small cell lung and in the assay on M19-MEL melanoma was over 100 µM in each case.
For `Cc1ccc(/C=C/C(=O)C(C)(C)CN2CCCCC2)cc1`, the TGI amounted to 8.36 µM in the assay with SK-MEL-5 melanoma; 18.9 µM in the assay with 786-0 renal; 29.7 µM in the assay on SNB-78 CNS; 32.1 µM in the assay on RXF-631 renal; 10.7 µM in the assay on KM20L2 colon; 19.4 µM in the assay with LXFL 529 NSCLC. Further, the TGI with MOLT-4 leukemia came out at 7.55 µM; with HOP-62 NSCLC, 29.5 µM; in the assay on XF 498 CNS, 25.3 µM; with DMS 273 small cell lung it was 11.7 µM; with CCRF-CEM leukemia, 10.4 µM; in the assay on M19-MEL melanoma, 31.1 µM. Besides, the TGI in the assay with U251 CNS came out at 27.5 µM.
